EC50 data for one compound are collected here from publication PMC3208124 (Journal of medicinal chemistry, 2011).

The structures appear in SMILES notation.

Assay [1] concerns Plasmodium falciparum 3D7 (drug sensitive) strain. The assay is described as follows: Growth inhibition of P. falciparum 3D7 in erythrocytic co-culture. The assay is classed as cell-based. The following applies: 3D7, read-out: EC50 3D7.
Assay [2] has as its system Plasmodium falciparum K1 (drug resistant) strain. The assay is described as follows: Growth inhibition of P. falciparum K1 in erythrocytic co-culture. It counts as cell-based. The following applies: K1, read-out: EC50 K1.

As to `O=C(CCc1ccccc1)c1ccccc1OCC(O)CN1CCN(C(c2ccccc2)c2ccccc2)CC1` (centres unmarked) [Compound 6z], the EC50 in assay [1] and in assay [2] was at most 0.1 µM each time.
